In patent US10647680B2, “Urea compound, preparation method therefor and medical use thereof” (Ancureall Pharmaceutical (Shanghai) Co., Ltd., priority 2016, dated 2020) one finds Papp A→B, Papp B→A and efflux ratio data, which are given here for 1 molecule.

The nature of data set [1]: Bidirectional transmembrane transport and P-gp efflux in Caco-2 monolayer cell model. It is filed as in vitro ADME. The settings on record: human. As to the method: (§1) The Caco-2 cell transport experiment was performed using compound 77 of the present invention as a representative example.
(§2) Main procedure: Caco-2 cells (ATCC, HTB-37) were cultured in high-glucose DMEM culture medium (Hyclone) containing 10% fetal calf serum (GIBCO) and penicillin-streptomycin (100 units/mL each) (Sigma). Cells were cultured at 37° C. in an incubator containing 5% CO2. In the transport experiment, Caco-2 cells were inoculated on a filter of a 12-well Transwell plate at a density of 2×10^5 cells/well (Coming Costar, catalog #3401, 1.12 cm^2, 0.4 um of pore size). After inoculation, the Caco-2 cells would form intact cell monolayers after 21 days, including P-gp efflux transporter expression and transepithelial cell resistance (TEER) formation. During the period, the culture medium was replaced once every other day. The volume of culture medium at the transwell membrane Apical Side (A) and Basolateral Side (B) were 0.5 mL and 1.5 mL, respectively. Before the transport experiment (day 21), the preheated HBSS buffer (137 mM NaCl, 4.17 mM NaHCO3, 0.34 mM Na2HPO4, 5.37 mM KCl, 0.44 mM KH2PO4, 1.26 mM CaCl2, 0.49 mM MgCl2, 0.41 mM MgSO4, 5.55 Mm D-Glucose, 10 mM HEPES, pH 7.4) was used firstly to wash Caco-2 cell monolayers for three times, and placed to at 37° C. for incubation for 30 minutes, then TEER values were determined using a cell resistometer (Millicell-ERS2) to confirm the integrity and compactness of the cell monolayers. When the HBSS buffer solution on the transmembrane A-side or B-side was replaced with the test compound, the transport experiment was started.
(§3) Finally, after incubation at 37° C. for 2 hours, the transport experiment was terminated and 50 uL of sample solution was taken from both sides of the Transwell filter membrane separately and added to 100 μL of acetonitrile comprising internal standard compound and mixed well, then centrifuged at 13000 rpm, 4° C. for 10 min, and finally 10 μL (or a specific volume) of supernatant was used for LC-MS/MS sample analysis.
(§4) For each compound, transport experiments in the A-B and B-A directions had three replicates, i.e. n=3.
(§5) LC-MS/MS Sample Analysis: The high performance liquid chromatography (HPLC) system used in this research consisted of two pumps (Shimadzu LC-20AD) and an autosampler (Shimadzu SIL-20AC). The HPLC system was connected in series with an API 4000 triple quadrupole mass spectrometer (Applied Biosystems). The API 4000 triple quadrupole mass spectrometer was equipped with an electrospray ionization (ESI) source. Ultrapurified nitrogen was used as curtain gas, GAS1, GAS2, and collision gas, at flow rates of 20 L/h, 55 L/h, 65 L/h, and 6 L/hr, respectively. The atomization temperature of the ion source was set to 500° C. Data was collected using the software Analyst 1.5.
(§6) Data analysis: The apparent permeability coefficient (Papp) can be calculated by the rate at which a compound permeates the monolayer of Caco-2 cells. Its value is related to the absorption of the compound in vivo. After concentrations at A side and B side were determined by LC-MS/MS, the Papp value in the A-B or B-A direction was calculated according to the following formula: Papp(A→B) or Papp(B→A)=(dQ/dt)/(A*C0)=(C2h*V)/(t*π2*C0)
(§7) In the above formula, dQ/dt is the permeation rate, i.e. the amount of compound that permeated in the dt time, C0 is the initial concentration of drug on the administration side, and A is the surface area of the cell monolayer, i.e. the membrane area.
(§8) After obtaining the Papp (A→B) and Papp (B→A) values of the compound, the Efflux Ratio (ER) of the compound could be calculated by the following formula: Efflux Ratio(ER)=Papp(B−A)/Papp(A−B).
(§9) When the ratio of efflux was >2, the compound could be considered as the substrate of the efflux transporter.
Background: Passage across Caco-2 layers is used to estimate intestinal permeability.

Data set [2] deals with P-gp. The data set is described as above. It is filed as in vitro ADME. To be noted: human, Caco-2, pH 7.4; Concentration 10, Inhibitor − (without P-gp inhibitor GF120918); read-out: Efflux Ratio Papp (B→A)/Papp (A→B). As for the experimental part:
as §1, §2, §3, §4, §5, §6, §7, §8, §9

The structures appear in SMILES notation. Like-named read-outs stand apart in the source and are kept apart here.

For `COCCOc1ccc2c(c1)ncn2-c1ccc(NC(=O)Nc2cc(C(C)(C)C)n[nH]2)cc1` [Compound 77, 1-(5-tert-butyl-2H-pyrazol-3-yl)-3-{4-[5-(2-methoxyl-ethoxyl)-benzimidazol-1-yl]-phenyl}-urea], the Papp A→B at 2 h was 10 to 100 nm/s in data set [1] (Caco-2, pH 7.4, Caco-2 monolayer cell model, transmembrane permeability, read-out: Papp(A→B) value (conclusions under the table)) and 22.4 nm/s in data set [1] (Caco-2, pH 7.4, Concentration 10, Inhibitor − (without P-gp inhibitor GF120918), read-out: Papp (A→B)). The Papp B→A at 2 h in data set [1] (Caco-2, pH 7.4, Concentration 10, Inhibitor − (without P-gp inhibitor GF120918)) was found to be 131 nm/s. For the same molecule, the efflux ratio at 2 h in data set [2] turned out to be 5.8.

As a reminder, the Papp A→B is how fast a substance crosses the layer from the apical side. What is called Papp B→A is the apparent permeability from the basolateral to the apical side of a cell layer.
